Source: US12509460B2 (Skyhawk Therapeutics, Inc., priority 2019, dated 2025)
Where two headings read alike, the source gives them in different places.

Assays:
[1] = system: mHTT protein in GM04724 (CAG 70/20) Huntington's disease patient lymphoblast cells; assay: mHTT protein assay, 2B7-MW1 assay via Mesoscale Discovery (MSD); assay type: cell-based, human
Description: Example A10: mHTT Protein Assay
Compounds are tested on GM04724 (CAG 70/20) Huntington's disease patient lymphoblast cells at doses ranging from 10 μM to 0.6 nM. 4,500 cells/well are seeded in 384 well plates. One plate replica is carried out for parallel viability testing by CellTiter Glo (CTG). Compounds are incubated for 48 hours. mHTT protein levels are assessed by the 2B7-MW1 assay via Mesoscale Discovery (MSD) as previously reported (Macdonald et al., 2014). The antibody pair is comprised of previously characterized monoclonals (2B7 and MW1) interrogating two regions for HTT conformation and biological properties: the N, 17 domain and the polyQ domain (Baldo et al., 2012; Ko et., 2001). 2B7-MW1 is […] specific levels of HTT at the time of treatment. 2B7-MW1 is dependent on polyQ expansion (e.g., the higher the expansion the higher the signal) and on mHTT size (e.g., a similar polyQ will give higher signal with smaller HTT size). The viability readout is carried out by CTG according to the manufacturer's instructions.

[2] = system: MDR1; assay: Blood-brain-barrier (BBB) penetration potential via MDCK-MDR1 permeability assay; details: dog, MDCK-MDR1, pH 7.4, MDCK-MDR1: Efflux
[3] = system: MDR1-MDCK cell monolayers; assay: as above
[4] = system: MDR1 (P-gp); assay: as above; details: dog; for Papp A→B at 120 min, 5 μM: MDCK-MDR1, pH 7.4, MDCK-MDR1: Papp A-B; for Papp B→A at 120 min, 5 μM: MDCK-MDR1, pH 7.4, MDCK-MDR1: Papp B-A; for efflux ratio at 120 min, 5 μM: MDCK-MDR1, pH 7.4, MDCK-MDR1: Efflux
[5] = system: SMN protein in spinal muscular atrophy (SMA) patient fibroblasts (GM03813, Coriell); assay: SMN protein assay, Mesoscale Discovery (MSD); assay type: cell-based, human; details: read-out: SMN2 protein EC50
Description: Example A12: SMN Protein Assay
Compounds are tested on spinal muscular atrophy (SMA) patient fibroblasts (GM03813, Coriell) at doses ranging from 2.5 μM to 0.6 nM. 7000 cells/well are seeded in 96-well plates. Compounds are incubated for 48 hours and the cells were lysed with 100 μL of lysis buffer. 20 μL of lysate is used for SMN protein measurement by Mesoscale Discovery (MSD) assay developed by PharmOptima (Michigan). A standard curve prepared with SMN protein ranging from 1 μg/ml to 19.5 pg/ml is used in each MSD plate to calculate the absolute SMN protein amount in each sample.

[6] = GM04724 Huntington's disease patient lymphoblasts
[7] = SMA patient fibroblasts GM03813, 48 hours, MSD
[8] = GM04724 (CAG 70/20) Huntington's disease patient lymphoblasts
[9] = SMA patient fibroblasts (GM03813), 48 hours

Row | Structure (SMILES) | EC50 [1, 6] [nM] | efflux ratio at 120 min, 5 μM ([2]; efflux ratio) | MDCK-MDR1: % Recov A-B ([3]; A-B direction) [%] | MDCK-MDR1: % Recov B-A ([3]; B-A direction) [%] | Papp A→B at 120 min, 5 μM ([4]; A-B direction) [×10⁻⁶ cm/s] | Papp B→A at 120 min, 5 μM ([4]; B-A direction) [×10⁻⁶ cm/s] | EC50 [5, 7] [nM] | efflux ratio at 120 min, 5 μM ([4]; efflux ratio) | EC50 [1, 8] [nM] | MDCK-MDR1: % Recov A-B ([3]; A-B) [%] | MDCK-MDR1: % Recov B-A ([3]; B-A) [%] | efflux ratio at 120 min, 5 μM [4] | Papp A→B at 120 min, 5 μM ([4]; A-B) [×10⁻⁶ cm/s] | Papp B→A at 120 min, 5 μM ([4]; B-A) [×10⁻⁶ cm/s] | EC50 [5, 9] [nM] | mHTT protein EC50 [1, 6] | efflux ratio at 120 min, 5 μM [2]
1 | CN(c1ccc(-c2ccc(C3=CCCC3)cc2O)nn1)[C@@H]1C[C@H]2CC[C@H](N2)[C@@H]1F [Compound 34A, 5-(cyclopent-1-en-1-yl)-2-(6-(((1S,2S,3R,5R)-2-fluoro-8-azabicyclo[3.2.1]octan-3-yl)(methyl)amino)pyridazin-3-yl)phenol] | 101 to 500 | 2 | 8 | 55 | 0.63 | 1.05 | 16 to 50 |  |  |  |  |  |  |  |  |  | 
2 | CC#Cc1ccc(-c2ccc(N(C)C3CC4CCC(N4)C3F)nn2)c(O)c1 (single isomer, unassigned) [Compound 30B] | 51 to 100 |  | 38 | 69 | 10.6 | 11 | 101 to 500 | 1 |  |  |  |  |  |  |  |  | 
3 | CN(c1ccc(-c2cc3cncnc3cc2O)nn1)[C@@H]1C[C@H]2CC[C@H](N2)[C@@H]1F [Compound 75A, 6-(6-(((1S,2S,3R,5R)-2-fluoro-8-azabicyclo[3.2.1]octan-3-yl)(methyl)amino)pyridazin-3-yl)quinazolin-7-ol] | 101 to 500 | 22 | 101 | 100 | 2.31 | 50.3 | 51 to 100 |  |  |  |  |  |  |  |  |  | 
4 | CN(c1ccc(-c2cc3ccncc3cc2O)nn1)[C@@H]1C[C@H]2CC(F)(F)[C@@H](C1)N2 [Compound 125A, 6-(6-(((1S,3R,5R)-6,6-difluoro-8-azabicyclo[3.2.1]octan-3-yl)(methyl)amino)pyridazin-3-yl)isoquinolin-7-ol] |  |  |  |  |  |  |  |  | 101 to 500 | 63 | 87 | 3 | 14.1 | 43.3 | 51 to 100 |  | 
5 | CN(c1ccc(-c2ccc(C#N)cc2O)nn1)[C@H]1C[C@@H]2CCC[C@@H](N2)[C@H]1F [Compound 39B, 4-(6-(((1R,2R,3S,5S)-2-fluoro-9-azabicyclo[3.3.1]nonan-3-yl)(methyl)amino)pyridazin-3-yl)-3-hydroxybenzonitrile] | 101 to 500 | 9 | 96 | 86 | 4.57 | 40.6 | 16 to 50 |  |  |  |  |  |  |  |  |  | 
6 | CN(C)C(=O)c1cc2cc(O)c(-c3ccc(N(C4CC4)[C@H]4C[C@@H]5CC[C@@H](N5)[C@H]4F)nn3)cc2o1 [Compound 86B, 6-(6-(cyclopropyl((1R,2R,3S,5S)-2-fluoro-8-azabicyclo[3.2.1]octan-3-yl)amino)pyridazin-3-yl)-5-hydroxy-N,N-dimethylbenzofuran-2-carboxamide] | 16 to 50 | 66 | 88 | 92 | 0.81 | 53.6 | 51 to 100 |  |  |  |  |  |  |  |  |  | 
7 | Cc1cnc(-c2ccc(-c3ccc(N(C)[C@@H]4C[C@H]5CCC[C@H](N5)[C@@H]4F)nn3)c(O)c2)cn1 [Compound 26A, 2-(6-(((1S,2S,3R,5R)-2-fluoro-9-azabicyclo[3.3.1]nonan-3-yl)(methyl)amino)pyridazin-3-yl)-5-(5-methylpyrazin-2-yl)phenol] | 101 to 500 | 21 | 65 | 77 | 2.09 | 43.6 | 51 to 100 |  |  |  |  |  |  |  |  |  | 
8 | CC(=O)N(C)c1ccc(-c2ccc(N(C)[C@H]3C[C@@H]4CC[C@@H](N4)[C@H]3F)nn2)c(O)c1 [Compound 35B, N-(4-(6-(((1R,2R,3S,5S)-2-fluoro-8-azabicyclo[3.2.1]octan-3-yl)(methyl)amino)pyridazin-3-yl)-3-hydroxyphenyl)-N-methylacetamide] |  | 181 | 103 | 99 | 0.23 | 42 | 0.01 to 15 |  |  |  |  |  |  |  |  | E (501 ≤ E ≤ 10.000) | 
9 | CN(c1ccc(-c2cc3cnccc3cc2O)nn1)[C@H]1C[C@@H]2CC[C@H]([C@H]1F)N2C [Compound 93B, 7-(6-(((1R,2R,3S,5S)-2-fluoro-8-methyl-8-azabicyclo[3.2.1]octan-3-yl)(methyl)amino)pyridazin-3-yl)isoquinolin-6-ol] | 101 to 500 | 4 | 45 | 63 | 5.39 | 22.3 | 51 to 100 |  |  |  |  |  |  |  |  |  | 
10 | CN(c1ccc(-c2cc3ncn(C)c(=O)c3cc2O)nn1)[C@@H]1C[C@H]2CC[C@@H]([C@@H]1F)N2C [Compound 101A, 7-(6-(((1S,2S,3R,5R)-2-fluoro-8-methyl-8-azabicyclo[3.2.1]octan-3-yl)(methyl)amino)pyridazin-3-yl)-6-hydroxy-3-methylquinazolin-4(3H)-one] |  |  |  |  |  |  |  |  | 101 to 500 | 101 | 109 |  | 2.81 | 72.6 | 51 to 100 |  | 26
11 | Cc1nc2cc(-c3ccc(N(C)[C@@H]4C[C@H]5CC[C@H](N5)[C@@H]4F)nn3)c(O)cc2o1 [Compound 118A, 5-(6-(((1S,2S,3R,5R)-2-fluoro-8-azabicyclo[3.2.1]octan-3-yl)(methyl)amino)pyridazin-3-yl)-2-methylbenzo[d]oxazol-6-ol] |  |  |  |  |  |  |  |  | 16 to 50 |  |  |  |  |  |  |  | 
12 | CN(c1ccc(-c2ccc(-c3cnn(C)c3)cc2O)nn1)[C@H]1C[C@H]2CC(F)(F)[C@H](C1)N2 (single isomer, unassigned) [Compound 3B] | 51 to 100 |  | 80 | 71 | 16.3 | 22.7 | 101 to 500 | 1 |  |  |  |  |  |  |  |  | 
13 | Cc1nc2cc(-c3ccc(N(C)[C@H]4C[C@@H]5CC[C@@H](N5)[C@H]4F)nn3)c(O)cc2o1 [Compound 118B, 5-(6-(((1R,2R,3S,5S)-2-fluoro-8-azabicyclo[3.2.1]octan-3-yl)(methyl)amino)pyridazin-3-yl)-2-methylbenzo[d]oxazol-6-ol] |  |  |  |  |  |  |  |  | 0.01 to 15 |  |  |  |  |  |  |  | 
14 | CN(c1ccc(-c2cc(F)c(-c3ccn(C)c(=O)c3)cc2O)nn1)[C@H]1C[C@@H]2CC(F)(F)[C@H](C1)N2 [Compound 22B, 4-(4-(6-(((1R,3S,5S)-6,6-difluoro-8-azabicyclo[3.2.1]octan-3-yl)(methyl)amino)pyridazin-3-yl)-2-fluoro-5-hydroxyphenyl)-1-methylpyridin-2(1H)-one] |  | 31 | 88 | 95 | 2.83 | 87.7 | 51 to 100 |  |  |  |  |  |  |  |  |  | 
